{"source": "patent US20230255197A1", "about": "“INFLUENCE OF THE MORPHOLOGICAL AND THE STRUCTURAL CHANGES ON THE ANTIMICROBIAL ACTIVITIES OF TITANATE NANOWIRES” (BOARD OF TRUSTEES OF THE UNIVERSITY OF ARKANSAS, priority 2022, published 2023)", "test_system": "E. coli cells", "test": "E. coli growth in LB medium in 96-well plates, cell growth monitored by absorbance at 600 nm", "assay_type": "cell-based", "conditions": "37° C., O.D. at 600 nm = 0.25, read from FIG. 2, chloramphenicol:nanomaterial w/w 1:10", "protocol": "In step (3), to test the antimicrobial efficiency, solution of E. coli cells were inoculated into fresh LB medium and incubated at 37° C. overnight. In one embodiment, 5µL solution of E. coli cells was inoculated into 2 ml of fresh LB medium. Sample of the overnight culture was transferred into each well of a 96-well plate and further grown with 200 µL fresh LB medium. To test antimicrobial activities, different concentrations of antimicrobial agents alone, TiO2 alone, and TiO2 nanowires - chloramphenicol complex were added to the LB medium with E. coli cells. It should be noted that same procedure was followed to prepare different concentrations (1, 2, 3, 4, and 5 µg/ml) of either chloramphenicol alone, nanomaterials alone or a mixture of both. Three identical replicates were prepared on the plate for each assigned material. Then, the 96-well plates were sealed with an oxygen-permeable membrane and the cell growth was monitored by reading the absorbance at 600 nm with microplate readers at 37° C. continuously. Equal amounts of chloramphenicol were mixed with each sample of the assigned version of nanomaterials (Na-TiO2 and K-TiO2) with a w/w ratio of 1:10. […]"}
{"smiles": "O=C(N[C@H](CO)[C@H](O)c1ccc([N+](=O)[O-])cc1)C(Cl)Cl", "note": "[chloramphenicol]", "values": [{"measurement": "concentration of chloramphenicol necessary to reach the same O.D. reading 0.25 (same degree of antimicrobial activity)", "result": 5, "unit": "µg/mL"}]}
